Data as given in patent US9497970B2, “Pesticide compounds” (priority 2013, dated 2016).

Columns and labels:
Format in all cases: in vivo
[1] = system: Diamond Back Moth (Plutella xylostella); assay: B.1 Diamond Back Moth (Plutella xylostella), cabbage leaf dip; conditions: foliar, 500 ppm, 3rd instar larvae on dipped cabbage leaves, 72 hours after treatment, in comparison with untreated controls, read-out: mortality
Protocol: B.1 Diamond Back Moth (Plutella xylostella)
The active compound was dissolved at the desired concentration in a mixture of 1:1 (vol:vol) distilled water:aceteone. Surfactant (Kinetic HV) was added at a rate of 0.01% (vol/vol). The test solution was prepared at the day of use.
Leaves of cabbage were dipped in test solution and air-dried. Treated leaves were placed in petri dishes lined with moist filter paper and inoculated with ten 3rd instar larvae. Mortality was recorded 72 hours after treatment. Feeding damages were also recorded using a scale of 0-100%.

[2] = system: Boll Weevil (Anthonomus grandis); assay: B.3 Boll Weevil (Anthonomus grandis), microtiter plate insect diet; conditions: 120 h, 800 ppm, sprayed onto insect diet, 5 days, in comparison with untreated controls, read-out: mortality (egg and larval)
Protocol: B.3 Boll Weevil (Anthonomus grandis)
For evaluating control of boll weevil (Anthonomus grandis) the test unit consisted of 96-well-microtiter plates containing an insect diet and 5-10 A. grandis eggs.
(§1) The compounds were formulated using a solution containing 75% v/v water and 25% v/v DMSO. Different concentrations of formulated compounds were sprayed onto the insect diet at 5 μl, using a custom built micro atomizer, at two replications.
After application, microtiter plates were incubated at about 25±1° C. and about 75±5% relative humidity for 5 days. Egg and larval mortality was then visually assessed.

[3] = system: Mediterranean Fruitfly (Ceratitis capitata); assay: B.6 Mediterranean Fruitfly (Ceratitis capitata), microtiter plate insect diet; conditions: 120 h, 800 ppm, sprayed onto insect diet, 5 days, in comparison with untreated controls, read-out: mortality (egg and larval)
Protocol: B.6 Mediterranean Fruitfly (Ceratitis capitata)
For evaluating control of Mediterranean fruitfly (Ceratitis capitata) the test unit consisted of microtiter plates containing an insect diet and 50-80 C. capitata eggs.
as §1
(§2) After application, microtiter plates were incubated at about 28±1° C. and about 80±5% relative humidity for 5 days. Egg and larval mortality was then visually assessed.

[4] = system: Tobacco Budworm (Heliothis virescens); assay: B.7 Tobacco Budworm (Heliothis virescens) I, microtiter plate insect diet; conditions: 120 h, 800 ppm, sprayed onto insect diet, 5 days, in comparison with untreated controls, read-out: mortality (egg and larval)
Protocol: B.7 Tobacco Budworm (Heliothis virescens) I
For evaluating control of tobacco budworm (Heliothis virescens) the test unit consisted of 96-well-microtiter plates containing an insect diet and 15-25 H. virescens eggs. The compounds were formulated using a solution containing 75% v/v water and 25% v/v DMSO. Different concentrations of formulated compounds were sprayed onto the insect diet at 10 μl, using a custom built micro atomizer, at two replications.
as §2

[5] = system: Yellow Fever Mosquito (Aedes aegypti); assay: whole plant or invertebrate; conditions: 48 h, freshly hatched larvae in tap water, 2 days, in comparison with untreated controls, read-out: mortality (larval)
Protocol: B.11 Yellow Fever Mosquito (Aedes aegypti)
For evaluating control of yellow fever mosquito (Aedes aegypti) the test unit consisted of 96-well-microtiter plates containing 200 μl of tap water per well and 5-15 freshly hatched A. aegypti larvae.
The active compounds were formulated using a solution containing 75% (v/v) water and 25% (v/v) DMSO. Different concentrations of formulated compounds or mixtures were sprayed onto the insect diet at 2.5 μl, using a custom built micro atomizer, at two replications.

[6] = system: Orchid thrips (dichromothrips corbetti); assay: B.12 Orchid thrips (dichromothrips corbetti), floral-immersion technique; conditions: adult thrips on dipped orchid petals, 72 hours after treatment, in comparison with untreated controls
Protocol: B.12 Orchid thrips (dichromothrips corbetti)
Dichromothrips corbetti adults used for bioassay were obtained from a colony maintained continuously under laboratory conditions. For testing purposes, the test compound is diluted in a 1:1 mixture of acetone:water (vol:vol), plus Kinetic HV at a rate of 0.01% v/v.
Thrips potency of each compound was evaluated by using a floral-immersion technique. All petals of individual, intact orchid flowers were dipped into treatment solution and allowed to dry in Petri dishes. Treated petals were placed into individual resealable plastic along with about 20 adult thrips. All test arenas were held under continuous light and a temperature of about 28° C. for duration of the assay. After 3 days, the numbers of live thrips were counted on each petal. The percent mortality was recorded 72 hours after treatment.

[7] = system: Southern Armyworm (Spodoptera eridania), 2nd Instar Larvae; assay: B.10 Southern Armyworm (Spodoptera eridania), 2nd Instar Larvae, sprayed lima bean plants; conditions: 96 h, 300 ppm, larvae on sprayed lima bean plants, 4 days after treatment, in comparison with untreated controls, read-out: mortality
Protocol: B.10 Southern Armyworm (Spodoptera eridania), 2nd Instar Larvae
The active compounds were formulated by a Tecan liquid handler in 100% cyclohexanone as a 10,000 ppm solution supplied in tubes. The 10,000 ppm solution was serially diluted in 100% cyclohexanone to make interim solutions. These served as stock solutions for which final dilutions were made by the Tecan in 50% acetone:50% water (v/v) into 5 or 10 ml glass vials. A nonionic surfactant (Kinetic®) was included in the solution at a volume of 0.01% (v/v). The vials were then inserted into an automated electrostatic sprayer equipped with an atomizing nozzle for application to plants/insects.
Lima bean plants (variety Sieva) were grown 2 plants to a pot and selected for treatment at the 1st true leaf stage. Test solutions were sprayed onto the foliage by an automated electrostatic plant sprayer equipped with an atomizing spray nozzle. The plants were dried in the sprayer fume hood and then removed from the sprayer. Each pot was placed into perforated plastic bags with a zip closure. About 10 to 11 armyworm larvae were placed into the bag and the bags zipped closed. Test plants were maintained in a growth room at about 25° C. and about 20-40% relative humidity for 4 days, avoiding direct exposure to fluorescent light (24 hour photoperiod) to prevent trapping of heat inside the bags. Mortality and reduced feeding were assessed 4 days after treatment, compared to untreated control plants.

FC(F)(F)Oc1ccc(-n2cnc3c4ccc(/C=N/NC(=S)Nc5c(Cl)cccc5Cl)cc4ccc32)cc1 [C-37, 1-(2,6-dichlorophenyl)-3-[(E)-[3-[4-(trifluoromethoxy)phenyl]benzo[e]benzimidazol-7-yl]methyleneamino] thiourea]
≥ 75%: mortality at 500 ppm [1] | mortality at 800 ppm [2] | mortality at 800 ppm [3] | mortality at 800 ppm [4] | mortality at 800 ppm [5] | mortality at 500 ppm [6]

Cc1ccc(C)c(NC(=S)N/N=C/c2ccc3c(ccc4c3ncn4-c3ccc(OC(F)(F)F)cc3)c2)c1 [C-41, 1-(2,5-dimethylphenyl)-3-[(E)-[3-[4-(trifluoromethoxy)phenyl]benzo[e]benzimidazol-7-yl]methyleneamino] thiourea]
≥ 75%: mortality at 500 ppm [1] | mortality at 800 ppm [2] | mortality at 800 ppm [3] | mortality at 800 ppm [4] | mortality at 800 ppm [5] | mortality at 500 ppm [6]

Cc1cccc(C)c1NC(=S)N/N=C/c1ccc2c(c1)sc1c2ncn1-c1ccc(OC(F)(F)F)cc1 [C-47, 1-(2,6-dimethylphenyl)-3-[(E)-[3-[4-(trifluoromethoxy)phenyl]benzothiopheno[2,3-d]imidazol-6-yl]methyleneamino]thiourea]
≥ 75%: mortality at 500 ppm [1] | mortality at 800 ppm [2] | mortality at 800 ppm [3] | mortality at 800 ppm [4] | mortality at 800 ppm [5]

COc1cccc(C)c1NC(=S)N/N=C/c1ccc2c(ccc3c2ncn3-c2ccc(OC(F)(F)F)cc2)c1 [C-65, 1-(2-methoxy-6-methyl-phenyl)-3-[(E)-[3-[4-(trifluoromethoxy)phenyl]benzo[e]benzimidazol-7-yl]methyleneamino] thiourea]
≥ 75%: mortality at 500 ppm [1] | mortality at 800 ppm [2] | mortality at 800 ppm [3] | mortality at 800 ppm [4] | mortality at 800 ppm [5] | mortality at 500 ppm [6]

CCc1cccnc1NC(=S)N/N=C/c1ccc2c(ccc3c2ncn3-c2ccc(OC(F)(F)F)cc2)c1 [C-68, 1-(3-ethyl-2-pyridyl)-3-[(E)-[3-[4-(trifluoromethoxy)phenyl]benzo[e]benzimidazol-7-yl]methyleneamino] thiourea]
≥ 75%: mortality at 500 ppm [1] | mortality at 800 ppm [2] | mortality at 800 ppm [3] | mortality at 300 ppm [7]

Fc1cccc(F)c1NC(=S)N/N=C/c1ccc2c(ccc3c2ncn3-c2ccc(OC(F)(F)F)cc2)c1 [C-71, 1-(2,6-difluorophenyl)-3-[(E)-[3-[4-(trifluoromethoxy)phenyl]benzo[e]benzimidazol-7-yl]methyleneamino] thiourea]
≥ 75%: mortality at 800 ppm [2] | mortality at 800 ppm [3] | mortality at 800 ppm [4] | mortality at 300 ppm [7]

CCc1cccc(CC)c1NC(=S)N/N=C/c1ccc2c(ccc3c(-c4ccc(OC(F)(F)F)cc4)n(C)nc32)c1 [C-93, 1-(2,6-diethylphenyl)-3-[(E)-[2-methyl-3-[4-(trifluoromethoxy)phenyl]benzo [g]indazol-7-yl]methyleneamino] thiourea]
≥ 75%: mortality at 500 ppm [1] | mortality at 800 ppm [2] | mortality at 800 ppm [4] | mortality at 800 ppm [5] | mortality at 500 ppm [6]

Cc1cccc(C)c1NC(=S)N/N=C/c1ccc2c(c1)CCC1C2=NN(C)C1c1ccc(OC(F)(F)F)cc1 (stereo not shown) [C-94, 1-(2,6-dimethylphenyl)-3-[(E)-[2-methyl-3-[4-(trifluoromethoxy)phenyl]-3,3a,4,5-tetrahydrobenzo[g]indazol-7-yl]methyleneamino]thiourea]
≥ 75%: mortality at 500 ppm [1] | mortality at 800 ppm [2] | mortality at 800 ppm [4] | mortality at 800 ppm [5] | mortality at 500 ppm [6]

Cc1cccc(C)c1NC(=S)N/N=C/c1ccc2c(ccc3c(-c4ccc(OC(F)(F)F)cc4)n(C)nc32)c1 [C-96, 1-(2,6-dimethylphenyl)-3-[(E)-[2-methyl-3-[4-(trifluoromethoxy)phenyl]benzo[g]indazol-7-yl]methyleneamino] thiourea]
≥ 75%: mortality at 500 ppm [1] | mortality at 800 ppm [2] | mortality at 800 ppm [3] | mortality at 800 ppm [4] | mortality at 800 ppm [5] | mortality at 500 ppm [6]

COc1cccc(C)c1NC(=S)N/N=C/c1ccc2c(ccc3c(-c4ccc(OC(F)(F)F)cc4)n(C)nc32)c1 [C-97, 1-(2-methoxy-6-methyl-phenyl)-3-[(E)-[2-methyl-3-[4-(trifluoromethoxy)phenyl]benzo[g]indazol-7-yl]methyleneamino]thiourea]
≥ 75%: mortality at 500 ppm [1] | mortality at 800 ppm [2] | mortality at 800 ppm [3] | mortality at 800 ppm [4] | mortality at 800 ppm [5]

Cc1cccc(C)c1NC(=S)N/N=C/c1ccc2c(ccc3c2ncn3-c2ncc(C(F)(F)F)cc2Cl)c1 [C-112, 1-[[3-[3-chloro-5-(trifluoromethyl)-2-pyridyl]-3aH-benzo[e]benzimidazol-7-ylidene]methylimino]-3-(2,6-dimethylphenyl)thiourea]
≥ 75%: mortality at 800 ppm [2] | mortality at 800 ppm [3] | mortality at 800 ppm [4] | mortality at 800 ppm [5]

CC(C)c1ccccc1N1C(=O)CS/C1=N\C(=O)Nc1ccc2c(ccc3c2ncn3-c2ccc(OC(F)(F)F)cc2)c1 [C-115, (1Z)-1-[3-(2-isopropylphenyl)-4-oxo-thiazolidin-2-ylidene]-3-[3-[4(trifluoromethoxy)phenyl]benzo[e]benzimidazol-7-yl]urea]
≥ 75%: mortality at 800 ppm [2] | mortality at 800 ppm [3] | mortality at 800 ppm [4] | mortality at 800 ppm [5]

CC(C)c1ccccc1N/C(S)=N/C(=O)Nc1ccc2c(ccc3c2ncn3-c2ccc(OC(F)(F)F)cc2)c1 [C-117, (1Z)-1-[(2-isopropylanilino)-sulfanyl-methylene]-3-[3-[4-(trifluoromethoxy)phenyl]benzo[e]benzimidazol-7-yl]urea]
≥ 75%: mortality at 800 ppm [2] | mortality at 800 ppm [3] | mortality at 800 ppm [4] | mortality at 800 ppm [5]
